These results are taken from patent publication US9518974B2, “Sensor system for detecting organophosphorus residues by inducing coagulation of gold nanoparticles” (priority 2014, dated 2016).

This assay addresses EGFP (Aequorea victoria, UniProt P42212, F64L/H231L/S65T). Briefly: Influence of organophosphorus pesticide on activity (fluorescence) of EGFP. The note with it: pesticide 10 ppb to 10 ppm, excitation 480 nm, emission 510 nm, control 10% methanol.

As to `CCOP(=O)(Sc1ccccc1)Sc1ccccc1` [edifenphos], the “intensity of fluorescence of EGFP” value is listed as “the same results”. To `CC(C)OP(=O)(OC(C)C)SCc1ccccc1` [iprobenfos] belongs “the same results”.
